Among the data in US10745384B2, “Indazole derivatives as αv integrin antagonists” (BRISTOL-MYERS SQUIBB COMPANY, priority 2016, dated 2020) are IC50 values, retold here.

The structures appear in SMILES notation. pIC50: −log10 of the molar value.

The target in this test is T1, human αVβ6 (Homo sapiens, UniProt P06756+P18564).
T1 construct: purchased R & D systems 3817-AV
T1 sequence (P06756 31-992 limits assumed): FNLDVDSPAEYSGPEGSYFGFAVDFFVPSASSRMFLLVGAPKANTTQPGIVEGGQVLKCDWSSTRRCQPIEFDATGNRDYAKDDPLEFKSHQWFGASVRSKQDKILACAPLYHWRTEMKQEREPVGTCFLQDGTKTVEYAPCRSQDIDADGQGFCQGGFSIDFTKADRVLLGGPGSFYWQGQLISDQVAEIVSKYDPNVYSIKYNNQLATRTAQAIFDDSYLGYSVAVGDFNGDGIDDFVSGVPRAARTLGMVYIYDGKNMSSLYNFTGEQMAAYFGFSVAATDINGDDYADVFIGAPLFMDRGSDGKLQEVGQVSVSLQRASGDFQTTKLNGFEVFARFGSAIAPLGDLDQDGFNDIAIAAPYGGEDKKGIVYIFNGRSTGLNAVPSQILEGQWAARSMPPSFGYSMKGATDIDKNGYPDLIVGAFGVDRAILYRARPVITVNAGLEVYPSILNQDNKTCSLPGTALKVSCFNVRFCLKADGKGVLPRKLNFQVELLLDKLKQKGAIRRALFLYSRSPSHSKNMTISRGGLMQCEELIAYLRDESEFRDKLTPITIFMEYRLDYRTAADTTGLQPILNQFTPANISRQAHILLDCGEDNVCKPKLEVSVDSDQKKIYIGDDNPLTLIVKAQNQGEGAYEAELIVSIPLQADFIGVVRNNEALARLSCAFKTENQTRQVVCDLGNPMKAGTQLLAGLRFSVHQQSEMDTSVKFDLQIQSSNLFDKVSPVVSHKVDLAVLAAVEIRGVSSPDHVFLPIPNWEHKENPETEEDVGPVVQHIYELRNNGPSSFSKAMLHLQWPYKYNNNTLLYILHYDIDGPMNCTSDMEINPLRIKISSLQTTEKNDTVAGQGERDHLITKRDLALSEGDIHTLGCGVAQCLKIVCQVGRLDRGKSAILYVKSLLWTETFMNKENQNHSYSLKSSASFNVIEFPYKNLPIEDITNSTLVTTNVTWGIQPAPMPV
T1 sequence (P18564 22-707 limits assumed): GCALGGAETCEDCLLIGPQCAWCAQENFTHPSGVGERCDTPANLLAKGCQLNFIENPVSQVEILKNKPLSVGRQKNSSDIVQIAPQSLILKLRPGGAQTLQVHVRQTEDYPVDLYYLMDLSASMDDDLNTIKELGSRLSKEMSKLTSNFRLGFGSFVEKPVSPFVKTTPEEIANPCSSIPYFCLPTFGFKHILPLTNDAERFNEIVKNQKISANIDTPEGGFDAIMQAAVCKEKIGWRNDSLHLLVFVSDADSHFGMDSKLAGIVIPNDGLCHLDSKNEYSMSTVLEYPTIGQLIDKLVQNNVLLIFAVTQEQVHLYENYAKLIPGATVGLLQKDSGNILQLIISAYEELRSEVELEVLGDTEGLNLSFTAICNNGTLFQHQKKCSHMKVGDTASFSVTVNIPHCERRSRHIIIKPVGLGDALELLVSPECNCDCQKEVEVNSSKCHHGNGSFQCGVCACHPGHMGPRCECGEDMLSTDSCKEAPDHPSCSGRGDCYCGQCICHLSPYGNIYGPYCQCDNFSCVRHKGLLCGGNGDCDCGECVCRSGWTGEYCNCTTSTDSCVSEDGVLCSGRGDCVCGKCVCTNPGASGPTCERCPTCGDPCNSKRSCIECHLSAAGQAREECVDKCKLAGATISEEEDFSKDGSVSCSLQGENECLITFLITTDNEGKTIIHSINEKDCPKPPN
The test can be described thus: human αVβ6 HTRF binding assay. The note with it: recombinant human αVβ6 integrin, FITC-conjugated fibronectin. In outline:
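HTRF binding in 20 mM Tris pH 7.4 with 1 mM MgCl2, 1 mM MnCl2, 0.01% Tween 20 and 0.01% BSA. For αVβ6, biotinylated integrin (1.25 nM) and FITC-fibronectin (5 nM) were incubated 1 h at RT, then streptavidin-terbium (0.625 nM) was added overnight in the dark. An SPA-based fibronectin binding format was an alternative.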
(In general: Time-resolved FRET reads energy transfer from a long-lived donor to a nearby acceptor.)
Regarding `CN1CCN(C(=O)c2cncc(C(CC(=O)O)n3ncc4cc(OCCc5ccc6c(n5)NCCC6)ccc43)c2)CC1` (centres unmarked) [Example 154, 3-(5-(4-methylpiperazine-1-carbonyl)pyridin-3-yl)-3-(5-(2-(5,6,7,8-tetrahydro-1,8-naphthyridin-2-yl)ethoxy)-1H-indazol-1-yl)propanoic acid], the pIC50 is 7.54.

Turning to `O=C(O)CC(c1cncc(C2CC2)c1)n1ncc2cc(OCCc3ccc4c(n3)NCCC4)ccc21` (centres unmarked) [Example 155, 3-(5-cyclopropylpyridin-3-yl)-3-(5-(2-(5,6,7,8-tetrahydro-1,8-naphthyridin-2-yl)ethoxy)-1H-indazol-1-yl)propanoic acid], the pIC50 is 8.28.

As for `CN1CCN(c2cncc(C(CC(=O)O)n3ncc4cc(OCCc5ccc6c(n5)NCCC6)ccc43)c2)CC1` (centres unmarked) [Example 156, 3-(5-(4-methylpiperazin-1-yl)pyridin-3-yl)-3-(5-(2-(5,6,7,8-tetrahydro-1,8-naphthyridin-2-yl)ethoxy)-1H-indazol-1-yl)propanoic acid], the pIC50 is 8.06.

Turning to `O=C(O)CC(c1cncc(C(=O)N2CCC2)c1)n1ncc2cc(OCCc3ccc4c(n3)NCCC4)ccc21` (centres unmarked) [Example 157, 3-(5-(azetidine-1-carbonyl)pyridin-3-yl)-3-(5-(2-(5,6,7,8-tetrahydro-1,8-naphthyridin-2-yl)ethoxy)-1H-indazol-1-yl)propanoic acid], the pIC50 is 7.49.

In the case of `CN(C)CCNC(=O)c1cncc(C(CC(=O)O)n2ncc3cc(OCCc4ccc5c(n4)NCCC5)ccc32)c1` (centres unmarked) [Example 158, 3-(5-((2-(dimethylamino)ethyl)carbamoyl)pyridin-3-yl)-3-(5-(2-(5,6,7,8-tetrahydro-1,8-naphthyridin-2-yl)ethoxy)-1H-indazol-1-yl)propanoic acid], the pIC50 is 7.89.

Regarding `Cc1ncc([C@H](CC(=O)O)n2ncc3cc(OCCc4ccc5c(n4)NCCC5)ccc32)cn1` [Example 159, (S)-3-(2-methylpyrimidin-5-yl)-3-(5-(2-(5,6,7,8-tetrahydro-1,8-naphthyridin-2-yl)ethoxy)-1H-indazol-1-yl)propanoic acid], the pIC50 was 7.33.

Take `Cc1ncc([C@@H](CC(=O)O)n2ncc3cc(OCCc4ccc5c(n4)NCCC5)ccc32)cn1` [Example 160, (R)-3-(2-methylpyrimidin-5-yl)-3-(5-(2-(5,6,7,8-tetrahydro-1,8-naphthyridin-2-yl)ethoxy)-1H-indazol-1-yl)propanoic acid]: the pIC50 is 5.59.

In the case of `O=C(O)CC(c1cncc(-n2cccn2)c1)n1ncc2cc(OCCc3ccc4c(n3)NCCC4)ccc21` (centres unmarked) [Example 161, 3-(5-(1H-pyrazol-1-yl)pyridin-3-yl)-3-(5-(2-(5,6,7,8-tetrahydro-1,8-naphthyridin-2-yl)ethoxy)-1H-indazol-1-yl)propanoic acid], the pIC50 was 8.26.

As to `CCCC(CC(=O)O)n1ncc2cc(OCCc3ccc4c(n3)NCCC4)ccc21` (centres unmarked) [Example 162, 3-(5-(2-(5,6,7,8-tetrahydro-1,8-naphthyridin-2-yl)ethoxy)-1H-indazol-1-yl)hexanoic acid], the pIC50 was 6.14.

On to `CN(C)c1cncc(C(CC(=O)O)n2ncc3cc(OCCc4ccc5c(n4)NCCC5)ccc32)c1` (centres unmarked) [Example 163, 3-(5-(dimethylamino)pyridin-3-yl)-3-(5-(2-(5,6,7,8-tetrahydro-1,8-naphthyridin-2-yl)ethoxy)-1H-indazol-1-yl)propanoic acid], for which the pIC50 is 8.42.

Regarding `O=C(O)CC(C1CCCCC1)n1ncc2cc(OCCc3ccc4c(n3)NCCC4)ccc21` (centres unmarked) [Example 164, 3-cyclohexyl-3-(5-(2-(5,6,7,8-tetrahydro-1,8-naphthyridin-2-yl)ethoxy)-1H-indazol-1-yl)propanoic acid], the pIC50 was 5.49.

In the case of `CS(=O)(=O)c1cncc([C@@H](CC(=O)O)n2ncc3cc(OCCc4ccc5c(n4)NCCC5)ccc32)c1` [Example 165, (R)-3-(5-(methylsulfonyl)pyridin-3-yl)-3-(5-(2-(5,6,7,8-tetrahydro-1,8-naphthyridin-2-yl)ethoxy)-1H-indazol-1-yl)propanoic acid], the pIC50 is 6.27.

In the case of `CS(=O)(=O)c1cncc([C@H](CC(=O)O)n2ncc3cc(OCCc4ccc5c(n4)NCCC5)ccc32)c1` [Example 166, (S)-3-(5-(methylsulfonyl)pyridin-3-yl)-3-(5-(2-(5,6,7,8-tetrahydro-1,8-naphthyridin-2-yl)ethoxy)-1H-indazol-1-yl)propanoic acid], the pIC50 was 8.28.

With `COC(=O)NCc1cncc(C(CC(=O)O)n2ncc3cc(OCCc4ccc5c(n4)NCCC5)ccc32)c1` (centres unmarked) [Example 167, 3-(5-(((Methoxycarbonyl)amino)methyl)pyridin-3-yl)-3-(5-(2-(5,6,7,8-tetrahydro-1,8-naphthyridin-2-yl)ethoxy)-1H-indazol-1-yl)propanoic acid], the pIC50 was 7.82.

As to `COC(=O)NCc1cncc([C@@H](CC(=O)O)n2ncc3cc(OCCc4ccc5c(n4)NCCC5)ccc32)c1` [Example 168], the pIC50 was 6.13.

In the case of `CS(=O)(=O)NCc1cncc(C(CC(=O)O)n2ncc3cc(OCCc4ccc5c(n4)NCCC5)ccc32)c1` (centres unmarked) [Example 170], the pIC50 was 7.74.

As to `CC(=O)NCc1cncc(C(CC(=O)O)n2ncc3cc(OCCc4ccc5c(n4)NCCC5)ccc32)c1` (centres unmarked) [Example 171], the pIC50 was 7.34.

Take `O=C(O)CC(c1cnc2c(c1)CCCN2)n1ncc2cc(OCCc3ccc4c(n3)NCCC4)ccc21` (centres unmarked) [Example 172, 3-(5-(2-(5,6,7,8-Tetrahydro-1,8-naphthyridin-2-yl)ethoxy)-1H-indazol-1-yl)-3-(5,6,7,8-tetrahydro-1,8-naphthyridin-3-yl)propanoic acid]: the pIC50 is 7.92.

On to `O=C(O)CCCNc1cncc(C(CC(=O)O)n2ncc3cc(OCCc4ccc5c(n4)NCCC5)ccc32)n1` (centres unmarked) [Example 173, 4-((6-(2-Carboxy-1-(5-(2-(5,6,7,8-tetrahydro-1,8-naphthyridin-2-yl)ethoxy)-1H-indazol-1-yl)ethyl)pyrazin-2-yl)amino)butanoic acid], for which the pIC50 is 6.43.

With `COc1ccc(C(CC(=O)O)n2ncc3c(CCc4ccc5c(n4)NCCC5)cccc32)cn1` (centres unmarked) [Example 174, 3-(6-Methoxypyridin-3-yl)-3-(4-(2-(5,6,7,8-tetrahydro-1,8-naphthyridin-2-yl)ethyl)-1H-indazol-1-yl)propanoic acid], the pIC50 was 6.27.

For the compound `COc1ccc(C(CC(=O)O)n2ncc3cc(OCCc4ccc5c(n4)NCCN5C)ccc32)cn1` (centres unmarked) [Example 179, 3-(6-Methoxypyridin-3-yl)-3-(5-(2-(1-methyl-1,2,3,4-tetrahydropyrido[2,3-b]pyrazin-6-yl)ethoxy)-1H-indazol-1-yl)propanoic acid], the pIC50 was 7.33.

`COc1ccc([C@H](CC(=O)O)n2ncc3cc(OCCc4ccc5c(n4)NCCO5)ccc32)cn1` [Example 180, (S)-3-(5-(2-(3,4-dihydro-2H-pyrido[3,2-b][1,4]oxazin-6-yl)ethoxy)-1H-indazol-1-yl)-3-(6-methoxypyridin-3-yl)propanoic acid]: the pIC50 was 7.82.

As for `COc1ccc([C@@H](CC(=O)O)n2ncc3cc(OCCc4ccc5c(n4)NCCO5)ccc32)cn1` [Example 181, (R)-3-(5-(2-(3,4-dihydro-2H-pyrido[3,2-b][1,4]oxazin-6-yl)ethoxy)-1H-indazol-1-yl)-3-(6-methoxypyridin-3-yl)propanoic acid], the pIC50 is 5.30.

As a reminder, the pIC50 is the negative decadic logarithm of the IC50, by convention in mol/L.
